Experimental data reported in US12453712B2, “Antitumoral use of cabazitaxel” (Sanofi Mature IP, priority 2009, dated 2025).

Legend:
[1] = test system: cancers that are resistant to hormone deprivation; details: docetaxel in combination with estramustine or prednisone; cited from earlier work
[2] = test system: castration resistant metastatic prostate cancer; assay: Randomized clinical study of cabazitaxel vs mitoxantrone, each with prednisone or prednisolone: efficacy; assay type: in vivo, human; details: intention-to-treat
Description: (§1) A clinical study was performed wherein patients received either treatment with cabazitaxel or the reference treatment based on mitoxantrone each combined with prednisone or prednisolone.
(§2) More specifically, patients over 18 years of age with metastatic castration resistant metastatic prostate cancer either measurable by RECIST criteria or non-measurable disease with rising PSA levels or appearance of new lesions, ECOG (Eastern Cooperative Oncology Group) performance stage 0-2, and adequate organ function (patients had to have neutrophils >1,500 cells/mm^3, platelets >100,000 cells/mm^3, hemoglobin >10 g/dL, creatinine <1.5×upper limit of normal (ULN), total bilirubin <1×ULN, AST <1.5×ULN, and ALT <1.5×ULN) who had had prior hormone therapy, chemotherapy, and radiotherapy, but had progressive during or after docetaxel treatment (cumulative dose ≥225 mg/m^2) were randomized to 10 mg/day of prednisone with either mitoxantrone 12 mg/m^2 or cabazitaxel 25 mg/m^2, both administered every 3 weeks.
(§3) Patients with a history of congestive heart failure, or myocardial infarction within the last 6 months, or patients with uncontrolled cardiac arrhythmias, angina pectoris, and/or hypertension were not included in the study.
(§4) 720 patients were planned to be included in the clinical study: 360 in each cabazitaxel+prednisone and mitoxantrone+prednisone group. Seven hundred and fifty-five patients (755) (median age 68; 84% white) were actually enrolled, 378 in the cabazitaxel and prednisone/prednisolone group and 377 in the mitoxantrone and prednisone/prednisolone group. The maximal number of treatment cycles was 10 for cabazitaxel and 10 for mitoxantrone. The median number of treatment cycles was 6 for cabazitaxel and 4 for mitoxantrone. The median prior dose of docetaxel treatment was 576 mg/m^2 for the cabazitaxel group and 529 mg/m^2 for the mitoxantrone group. Median follow-up was 12.8 months.
The measurements of the results are performed via the same tests as at inclusion. MRI and spiral computed tomographic (CT) scans are preferably used.
The results are evaluated according to the following criteria (cf RECIST guideline): • overall survival (OS): the time from inclusion to the study to the date of death complete response (CR): disappearance of the lesions • partial response (PR): at least 30% reduction of the largest diameter of the lesion progression (PD): at least 20% increase in the sum of the largest diameter of the lesion or appearance of one or more new lesions • stable disease (SD): reduction of the tumour insufficient to be included in PR and increase of the tumour insufficient to be included in PD.
The confirmations of the measurements are made at least 4 weeks after the response criterion has been established for the first time.
The progression-free survival (PFS) is the time from inclusion in the study and the date of progression or death when the progression is either an increase of the PSA, or of the tumour, or of the pain.

[3] = Same clinical study: adverse reactions, hematologic abnormalities, treatment discontinuation, delays and dose reductions; assay type: in vivo, human
Description: as §1, §2, §3, §4

[4] = human, in vivo, listed as Mitoxantrone
[5] = percent of patients, laboratory values, cabazitaxel: n = 369, mitoxantrone: n = 370

For CC(=O)O[C@@]12CO[C@@H]1C[C@H](O)[C@@]1(C)C(=O)[C@H](O)C3=C(C)[C@@H](OC(=O)[C@H](O)[C@@H](NC(=O)OC(C)(C)C)c4ccccc4)C[C@@](O)([C@@H](OC(=O)c4ccccc4)[C@H]21)C3(C)C [docetaxel], the improvement of survival [1] is listed as 2.4 months.

In the case of O=C1c2c(O)ccc(O)c2C(=O)c2c(NCCNCCO)ccc(NCCNCCO)c21 [mitoxantrone, reference compound], the “Discontinuation of study treatment for disease progression, (%)” value [2] is reported as “(70.8) %”, the “Discontinuation of study treatment for disease progression, no.” value ([2]; N = 377 mitoxantrone, N = 378 cabazitaxel) is reported as 267 and the “Overall survival Median” value ([2]; 25 mg/m^2 cabazitaxel or 12 mg/m^2 mitoxantrone every 3 weeks with prednisone) is reported as 12.7 months. For the same compound, the “PFS Median” value ([2]; earliest progression in tumor, PSA or pain) was 1.4 months, the “Rates of febrile neutropenia” value ([3]; Example 1) was 1.3% and the “Dose reductions, cycles (%)” value ([3]; human, in vivo) was 5.1%. The “Dose reductions, no. of cycles” value ([3]; human, in vivo) was 88, the “Treatment delays >9 days, cycles (%)” value ([3]; human, in vivo) was 1.6% and the “Treatment delays >9 days, no. of cycles” value ([3]; human, in vivo) was 28. The “Treatment delays ≤9 days, cycles (%)” value ([3]; human, in vivo) was 6.3%, the “Treatment delays ≤9 days, no. of cycles” value ([3]; human, in vivo) was 110 and the “Dose reductions, cycles (%)” value [3, 4] was “(5.1) %”. The “Treatment delays >9 days, cycles (%)” value [3, 4] was “(1.6) %”, the “Treatment delays ≤9 days, cycles (%)” value [3, 4] was “(6.3) %” and the “Discontinuation of study treatment for adverse event, (%)” value ([3]; intention-to-treat) was “(8.5) %”. The “Discontinuation of study treatment for adverse event, no.” value ([3]; intention-to-treat, N = 377 mitoxantrone, N = 378 cabazitaxel) was 32, the “Abdominal Pain Grade 1-4, (%)” value ([3]; percent of patients of n = 371) was “(6%)” and the “Alopecia Grade 1-4, (%)” value ([3]; percent of patients of n = 371) was “(5%)”. For the same compound, the “Anorexia Grade 1-4, (%)” value ([3]; percent of patients of n = 371) was “(11%)”, the “Anorexia Grade 3-4, (%)” value ([3]; percent of patients of n = 371) was “(<1%)” and the “Arrhythmia Grade 1-4, (%)” value ([3]; percent of patients of n = 371) was “(2%)”. The “Arrhythmia Grade 3-4, (%)” value ([3]; percent of patients of n = 371) was “(<1%)”, the “Arthralgia Grade 1-4, (%)” value ([3]; percent of patients of n = 371) was “(8%)” and the “Arthralgia Grade 3-4, (%)” value ([3]; percent of patients of n = 371) was “(1%)”. For the same compound, the “Asthenia Grade 1-4, (%)” value ([3]; percent of patients of n = 371) was “(12%)”, the “Asthenia Grade 3-4, (%)” value ([3]; percent of patients of n = 371) was “(2%)” and the “Back Pain Grade 1-4, (%)” value ([3]; percent of patients of n = 371) was “(12%)”. The “Back Pain Grade 3-4, (%)” value ([3]; percent of patients of n = 371) was “(3%)”, the “Bone Pain Grade 1-4, (%)” value ([3]; percent of patients of n = 371) was “(5%)” and the “Bone Pain Grade 3-4, (%)” value ([3]; percent of patients of n = 371) was “(2%)”. The “Constipation Grade 1-4, (%)” value ([3]; percent of patients of n = 371) was “(15%)”, the “Constipation Grade 3-4, (%)” value ([3]; percent of patients of n = 371) was “(<1%)” and the “Cough Grade 1-4, (%)” value ([3]; percent of patients of n = 371) was “(6%)”. For the same compound, the “Dehydration Grade 1-4, (%)” value ([3]; percent of patients of n = 371) was “(3%)”, the “Dehydration Grade 3-4, (%)” value ([3]; percent of patients of n = 371) was “(<1%)” and the “Diarrhea Grade 1-4, (%)” value ([3]; percent of patients of n = 371) was “(11%)”. The “Diarrhea Grade 3-4, (%)” value ([3]; percent of patients of n = 371) was “(<1%)”, the “Dizziness Grade 1-4, (%)” value ([3]; percent of patients of n = 371) was “(6%)” and the “Dizziness Grade 3-4, (%)” value ([3]; percent of patients of n = 371) was “(<1%)”. For the same compound, the “Dysgeusia Grade 1-4, (%)” value ([3]; percent of patients of n = 371) was “(4%)”, the “Dyspepsia Grade 1-4, (%)” value ([3]; percent of patients of n = 371) was “(2%)” and the “Dyspnea Grade 1-4, (%)” value ([3]; percent of patients of n = 371) was “(4%)”. For the same compound, the “Dyspnea Grade 3-4, (%)” value ([3]; percent of patients of n = 371) was “(<1%)”, the “Dysuria Grade 1-4, (%)” value ([3]; percent of patients of n = 371) was “(1%)” and the “Fatigue Grade 1-4, (%)” value ([3]; percent of patients of n = 371) was “(27%)”. For the same compound, the “Fatigue Grade 3-4, (%)” value ([3]; percent of patients of n = 371) was “(3%)”, the “Febrile Neutropenia Grade 1-4, (%)” value ([3]; percent of patients of n = 371) was “(1%)” and the “Febrile Neutropenia Grade 3-4, (%)” value ([3]; percent of patients of n = 371) was “(1%)”. For the same compound, the “Headache Grade 1-4, (%)” value ([3]; percent of patients of n = 371) was “(5%)”, the “Hematuria Grade 1-4, (%)” value ([3]; percent of patients of n = 371) was “(4%)” and the “Hematuria Grade 3-4, (%)” value ([3]; percent of patients of n = 371) was “(<1%)”. For the same compound, the “Hypotension Grade 1-4, (%)” value ([3]; percent of patients of n = 371) was “(2%)”, the “Hypotension Grade 3-4, (%)” value ([3]; percent of patients of n = 371) was “(<1%)” and the “Mucosal Inflammation Grade 1-4, (%)” value ([3]; percent of patients of n = 371) was “(3%)”. The “Mucosal Inflammation Grade 3-4, (%)” value ([3]; percent of patients of n = 371) was “(<1%)”, the “Muscle Spasms Grade 1-4, (%)” value ([3]; percent of patients of n = 371) was “(3%)” and the “Musculoskeletal Pain Grade 1-4, (%)” value ([3]; percent of patients of n = 371) was “(5%)”. For the same compound, the “Musculoskeletal Pain Grade 3-4, (%)” value ([3]; percent of patients of n = 371) was “(<1%)”, the “Nausea Grade 1-4, (%)” value ([3]; percent of patients of n = 371) was “(23%)” and the “Nausea Grade 3-4, (%)” value ([3]; percent of patients of n = 371) was “(<1%)”. The “Pain Grade 1-4, (%)” value ([3]; percent of patients of n = 371) was “(5%)”, the “Pain Grade 3-4, (%)” value ([3]; percent of patients of n = 371) was “(2%)” and the “Pain in Extremity Grade 1-4, (%)” value ([3]; percent of patients of n = 371) was “(7%)”. The “Pain in Extremity Grade 3-4, (%)” value ([3]; percent of patients of n = 371) was “(1%)”, the “Peripheral Edema Grade 1-4, (%)” value ([3]; percent of patients of n = 371) was “(9%)” and the “Peripheral Edema Grade 3-4, (%)” value ([3]; percent of patients of n = 371) was “(<1%)”. For the same compound, the “Peripheral Neuropathy Grade 1-4, (%)” value ([3]; percent of patients of n = 371) was “(3.2%)”, the “Peripheral Neuropathy Grade 3-4, (%)” value ([3]; percent of patients of n = 371) was “(<1%)” and the “Pneumonia Grade 1-4, (%)” value ([3]; percent of patients of n = 371) was “(1%)”. For the same compound, the “Pneumonia Grade 3-4, (%)” value ([3]; percent of patients of n = 371) was “(<1%)”, the “Pyrexia Grade 1-4, (%)” value ([3]; percent of patients of n = 371) was “(6%)” and the “Pyrexia Grade 3-4, (%)” value ([3]; percent of patients of n = 371) was “(<1%)”. The “Urinary Tract Infection Grade 1-4, (%)” value ([3]; percent of patients of n = 371) was “(3%)”, the “Urinary Tract Infection Grade 3-4, (%)” value ([3]; percent of patients of n = 371) was “(1%)” and the “Vomiting Grade 1-4, (%)” value ([3]; percent of patients of n = 371) was “(10%)”. For the same compound, the “Weight Decreased Grade 1-4, (%)” value ([3]; percent of patients of n = 371) was “(8%)”, the “Weight Decreased Grade 3-4, (%)” value ([3]; percent of patients of n = 371) was “(<1%)” and the “Anemia Grade 1-4, (%)” value [3, 5] was “(82%)”. The “Anemia Grade 3-4, (%)” value [3, 5] was “(5%)”, the “Leukopenia Grade 1-4, (%)” value [3, 5] was “(93%)” and the “Leukopenia Grade 3-4, (%)” value [3, 5] was “(42%)”. The “Neutropenia Grade 1-4, (%)” value [3, 5] was “(87%)”, the “Neutropenia Grade 3-4, (%)” value [3, 5] was 58.0% and the “Thrombocytopenia Grade 1-4, (%)” value [3, 5] was “(43%)”. For the same compound, the “Thrombocytopenia Grade 3-4, (%)” value [3, 5] was “(2%)” and the “Neutropenia Grade 3-4, (%)” value ([3]; percent of patients, laboratory values, cabazitaxel: n = 369, mitoxantrone: n = 370, listed as Mitoxantrone) was “(58%)”.
